Test results as given in patent EP3807270B1, “NOVEL HETEROARYL HETEROCYCLYL COMPOUNDS FOR THE TREATMENT OF AUTOIMMUNE DISEASE” (F. Hoffmann-La Roche AG, priority 2018, dated 2019).
pIC50: −log10 of the molar value.

Assays:
hTLR9 = biological target: T1, hTLR9 (Homo sapiens, UniProt Q9NR96); experiment: HEK293-Blue-hTLR-9 cells assay (SEAP reporter, ODN2006 stimulation); type: cell-based; parameters: host or cells: HEK293 (HEK-Blue); settings: HEK293-Blue-hTLR9 cells, ODN2006, 20 hrs; read-out: HEK/hTLR9 IC50
T1 sequence (Q9NR96 26-1032): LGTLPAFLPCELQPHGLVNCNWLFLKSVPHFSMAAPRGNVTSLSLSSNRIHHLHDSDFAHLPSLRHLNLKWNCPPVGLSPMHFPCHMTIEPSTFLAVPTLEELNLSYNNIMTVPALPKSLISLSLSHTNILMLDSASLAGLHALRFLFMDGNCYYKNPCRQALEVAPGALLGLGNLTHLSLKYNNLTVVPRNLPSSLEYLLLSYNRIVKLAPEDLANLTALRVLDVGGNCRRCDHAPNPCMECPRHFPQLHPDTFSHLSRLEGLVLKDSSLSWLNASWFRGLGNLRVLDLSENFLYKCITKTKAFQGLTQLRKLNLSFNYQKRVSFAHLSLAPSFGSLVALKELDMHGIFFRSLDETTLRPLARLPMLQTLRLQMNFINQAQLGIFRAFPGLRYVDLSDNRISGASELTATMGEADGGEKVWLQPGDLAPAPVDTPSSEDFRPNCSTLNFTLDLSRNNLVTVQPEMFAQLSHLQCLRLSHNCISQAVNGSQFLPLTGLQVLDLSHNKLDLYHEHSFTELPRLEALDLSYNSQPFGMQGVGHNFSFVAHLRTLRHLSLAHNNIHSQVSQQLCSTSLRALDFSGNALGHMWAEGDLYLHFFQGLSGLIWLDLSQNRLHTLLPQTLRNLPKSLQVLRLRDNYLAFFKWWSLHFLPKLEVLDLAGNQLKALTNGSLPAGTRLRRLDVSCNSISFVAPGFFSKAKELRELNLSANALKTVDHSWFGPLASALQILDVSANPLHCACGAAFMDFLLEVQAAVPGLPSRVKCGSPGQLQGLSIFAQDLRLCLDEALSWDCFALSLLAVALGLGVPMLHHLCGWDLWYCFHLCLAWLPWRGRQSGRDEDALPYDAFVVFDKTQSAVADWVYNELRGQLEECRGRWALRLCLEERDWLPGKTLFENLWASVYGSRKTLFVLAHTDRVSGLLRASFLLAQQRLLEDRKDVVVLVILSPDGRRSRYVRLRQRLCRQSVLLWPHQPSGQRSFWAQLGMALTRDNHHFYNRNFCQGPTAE
Description: A stable HEK293-Blue-hTLR-9 cell line was purchased from InvivoGen (Cat.#: hkb-htlr9, San Diego, California, USA). These cells were originally designed for studying the stimulation of human TLR9 by monitoring the activation of NF-κB. A SEAP (secreted embryonic alkaline phosphatase) reporter gene was placed under the control of the IFN-β minimal promoter fused to five NF-κB and AP-1-binding sites. The SEAP was induced by activating NF-κB and AP-1 via stimulating HEK-Blue hTLR9 cells with TLR9 ligands. Therefore, the reporter expression was declined by TLR9 antagonist under the stimulation of a ligand, such as ODN2006 (Cat.#: tlrl-2006-1, Invivogen, San Diego, California, USA), for incubation of 20 hrs. The cell culture supernatant SEAP reporter activity was determined using QUANTI-Blue™ kit (Cat.#: rep-qb 1, Invivogen, San Diego, California, USA) at a wavelength of 640 nm, a detection medium that turns purple or blue in the presence of alkaline phosphatase.
HEK293-Blue-hTLR9 cells were incubated at a density of 250,000-450,000 cells/mL in a volume of 170 µL in a 96-well plate in Dulbecco's Modified Eagle's medium (DMEM) containing 4.5 g/L glucose, 50 U/mL penicillin, […], […], 2 mM L-glutamine, 10% (v/v) heat-inactivated fetal bovine serum with addition of 20 µL test compound in a serial dilution in the presence of final DMSO at 1% and 10 µL of 20uM ODN2006 in above DMEM, perform incubation under 37 °C in a CO2 incubator for 20 hrs. Then 20 µL of the supernatant from each well was incubated with 180 µL Quanti-blue substrate solution at 37 °C for 2 hrs and the absorbance was read at 620-655 nm using a spectrophotometer. The signaling pathway that TLR9 activation leads to downstream NF-κB activation has been widely accepted, and therefore similar reporter assay was modified for evaluating TLR9 antagonist.

CYP2D6 = biological target: T2, CYP2D6 (Homo sapiens, UniProt P10635); experiment: CYP inhibition assay in human liver microsome; type: in vitro ADME; settings: human liver microsomes, probe dextromethorphan, 10µM test compound, dextromethorphan substrate, <0: not or weak inhibitor, read-out: CYP 2D6 inhibition %@10µM
T2 construct: tissue BD-Gentest 452117; host or cells: human liver microsomes
T2 sequence (P10635 whole entry): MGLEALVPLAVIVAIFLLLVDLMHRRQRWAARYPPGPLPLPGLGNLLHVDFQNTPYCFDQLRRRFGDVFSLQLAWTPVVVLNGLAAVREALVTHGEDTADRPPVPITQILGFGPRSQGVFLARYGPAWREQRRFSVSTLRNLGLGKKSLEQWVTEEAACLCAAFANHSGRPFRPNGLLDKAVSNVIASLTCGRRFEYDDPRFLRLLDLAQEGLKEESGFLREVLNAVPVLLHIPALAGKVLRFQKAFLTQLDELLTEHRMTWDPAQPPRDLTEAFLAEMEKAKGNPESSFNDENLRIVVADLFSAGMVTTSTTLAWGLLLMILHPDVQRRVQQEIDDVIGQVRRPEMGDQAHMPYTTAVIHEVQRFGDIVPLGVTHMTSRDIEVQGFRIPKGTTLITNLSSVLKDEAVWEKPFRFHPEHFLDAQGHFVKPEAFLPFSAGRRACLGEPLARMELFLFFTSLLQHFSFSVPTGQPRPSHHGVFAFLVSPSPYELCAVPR
Description: This is a high throughput screening assay used for assessment of reversible inhibition of CYP2D6 activity of test compounds in human liver microsome (HLM) in early discovery stage. Table 4. Chemicals and materials used in the CYP inhibition assay
10 mM DMSO stock solutions of test compounds were diluted in DMSO to generate 2 mM intermediate stock solution. 250 nL of intermediate stock solution were transferred in duplicate into 3 separate 384 well microtitre plates (assay-ready plates). A mixture of HLM and each substrate was made up. 45 µL of HLM substrate mix was then transferred to each well of an assay ready plate and mixed. The negative (solvent) and positive control (standard inhibitor for CYP 2D6) were included in each assay ready plate. The assay ready plate was warmed to 37 °C in an incubator over 10 minutes. 5 µL pre-warmed NADPH regenerating system was added to each incubation well to start the reaction. Final incubation volume was 50 µL. The assay plate then was placed back in the 37 °C incubator. After 10-minute incubation, incubates were quenched by addition of 50 µL 100% acetonitrile containing internal standards (20 ng/mL D3-Dextrorphan). The supernatants were collected for RapidFire/MS/MS analysis.
RapidFire online solid phase extraction/sample injection system (Agilent) coupled with API4000 triple quadrupole mass spectrometer (AB Sciex) were used for sample analysis. The mobile phase composed of acetonitrile and water supplemented with 0.1% formic acid. A C4 solid phase extraction cartridge is used for sample separation. MS detection is achieved in positive ion MRM mode.
Peak areas for substrate, metabolite and internal standard are determined using the RapidFire integrator software (version 3.6.12009.12296). Peak area ratios (PAR) of metabolite and internal standard (stable-labelled metabolite) are then calculated. The measurement window for each experiment is then defined: • PAR (0% activity)= average PAR for all incubations containing concentrated inhibitor; • Par (100% activity)= average PAR for all incubations containing no inhibitor (DMSO controls); • % Activity (test inhibitor) • =[PAR(test inhibitor)-PAR(0% activity)]/[PAR(100% activity)-PAR(0% activity)]; • % Inhibition (test inhibitor)=100-% Activity (test inhibitor).

Compound | pIC50 (hTLR9) | inhibition at 10 min, 10 µM (CYP2D6)
C[C@@H]1CN(c2ccc(C#N)c3ncccc23)C[C@H](CN2CCN(c3ccc4c(c3)CN(CCO)C4)CC2)O1 [Example 16, 5-[(2S,6R)-2-[[4-[2-(2-hydroxyethyl)isoindolin-5-yl]piperazin-1-yl]methyl]-6-methyl-morpholin-4-yl]quinoline-8-carbonitrile] | 7.04 | 2.5%
C[C@@H]1CN(c2ccc(C#N)c3ncccc23)C[C@H](CN2CCN(c3ccc4c(n3)CNC4)CC2)O1 [Example 30, 5-[(2S,6R)-2-[[4-(6,7-dihydro-5H-pyrrolo[3,4-b]pyridin-2-yl)piperazin-1-yl]methyl]-6-methyl-morpholin-4-yl] quinoline-8-carbonitrile] | 7.39 | 17.5%
C[C@@H]1CN(c2ccc(C#N)c3ncsc23)C[C@H](CN2CCN(c3cnc4c(c3)CNC4)CC2)O1 [Example 8, 7-[(2S,6R)-2-[[4-(6,7-dihydro-5H-pyrrolo[3,4-b]pyridin-3-yl)piperazin-1-yl]methyl]-6-methyl-morpholin-4-yl]-1,3-benzothiazole-4-carbonitrile] | 7.32 | 13%
C[C@@H]1CN(c2ccc(C#N)c3ncccc23)C[C@H](CN2CC3(C2)CN(c2cnc4c(c2)CCNC4)CCO3)O1 [Example 46, 5-[(2R,6S)-2-methyl-6-[[8-(5,6,7,8-tetrahydro-1,7-naphthyridin-3-yl)-5-oxa-2,8-diazaspiro[3.5]nonan-2-yl]methyl]morpholin-4-yl]quinoline-8-carbonitrile] | 6.94 | 12%
C[C@@H]1CN(c2ccc(C#N)c3ncccc23)C[C@H](CN2CCCN(c3ncc4c(n3)CCNC4)CC2)O1 [Example 39, 5-[(2R,6S)-2-methyl-6-[[4-(5,6,7,8-tetrahydropyrido[4,3-d]pyrimidin-2-yl)-1,4-diazepan-1-yl]methyl]morpholin-4-yl]quinoline-8-carbonitrile] | 7.05 | 8.5%
C[C@@H]1CN(c2ccc(C#N)c3ncccc23)C[C@H](CN2CCN(c3ccc4c(c3)CCNC4CO)CC2)O1 (stereo partly drawn) [Example 24, 5-[(2S,6R)-2-[[4-[1-(hydroxymethyl)-1,2,3,4-tetrahydroisoquinolin-6-yl]piperazin-1-yl]methyl]-6-methyl-morpholin-4-yl]quinoline-8-carbonitrile] | 7.34 | -9.5%
C[C@@H]1CN(c2ccc(C#N)c3ncccc23)C[C@H](CN2CCCN(c3nc4c(s3)CNCC4)CC2)O1 [Example 33, 5-[(2R,6S)-2-methyl-6-[[4-(4,5,6,7-tetrahydrothiazolo[5,4-c]pyridin-2-yl)-1,4-diazepan-1-yl]methyl]morpholin-4-yl]quinoline-8-carbonitrile] | 7.05 | -10.5%
C[C@@H]1CN(c2ccc(C#N)c3ncccc23)C[C@H](CN2CC3(C2)CN(c2ncc4c(n2)CCNC4)CCO3)O1 [Example 51, 5-[(2R,6S)-2-methyl-6-[[8-(5,6,7,8-tetrahydropyrido[4,3-d]pyrimidin-2-yl)-5-oxa-2,8-diazaspiro[3.5]nonan-2-yl]methyl]morpholin-4-yl]quinoline-8-carbonitrile] | 6.87 | –
C[C@@H]1CN(c2ccc(C#N)c3ncccc23)C[C@H](CN2CCC(Nc3ccc4c(c3)CNC4)C2)O1 (stereo partly drawn) [Example 38, 5-[(2S,6R)-2-[[3-(isoindolin-5-ylamino)pyrrolidin-1-yl]methyl]-6-methyl-morpholin-4-yl]quinoline-8-carbonitrile] | 7.47 | –

The remaining lines, values ahead:

pIC50 (hTLR9) | inhibition at 10 min, 10 µM (CYP2D6) | Compound
7.05 | -1.5% | C[C@@H]1CN(c2ccc(C#N)c3nccnc23)C[C@H](CN2CCN(c3cc4c(cn3)CN[C@@H](C)C4)CC2)O1 (single isomer, unassigned) [Example 84]
6.77 | -2.5% | C[C@@H]1CN(c2ccc(C#N)c3ncccc23)C[C@H](CN2CCN(c3cnc4c(c3)CNCC4)C(C)(C)C2)O1 [Example 56, 5-[(2S,6R)-2-[[3,3-dimethyl-4-(5,6,7,8-tetrahydro-1,6-naphthyridin-3-yl)piperazin-1-yl]methyl]-6-methyl-morpholin-4-yl]quinoline-8-carbonitrile]
7.08 | 8.5% | C[C@@H]1CN(c2ccc(C#N)c3ncccc23)C[C@H](CN2CCN(c3ccc4c(n3)CNCC4)CC2)O1 [Example 69, 5-[(2R,6S)-2-methyl-6-[[4-(5,6,7,8-tetrahydro-1,7-naphthyridin-2-yl)piperazin-1-yl]methyl]morpholin-4-yl]quinoline-8-carbonitrile]
6.97 | 5.5% | C[C@@H]1CN(c2ccc(C#N)c3nccnc23)C[C@H](CN2CCN(c3ccc4c(n3)CN[C@@H]4C)CC2)O1 (single isomer, unassigned) [Example 79]
7.17 | – | C[C@@H]1CN(c2ccc(C#N)c3ncccc23)C[C@H](CN2CCN(c3cc4c(cn3)CCN[C@H]4C)CC2)O1 (single isomer, unassigned) [Example 75]
7.04 | – | C[C@@H]1CN(c2ccc(C#N)c3ncccc23)C[C@H](CN2CCN(c3ccc4c(n3)CN[C@@H]4C)CC2)O1 (single isomer, unassigned) [Example 64]
7.04 | – | C[C@@H]1CN(c2ccc(C#N)c3ncccc23)C[C@H](CN2CCN(c3cc4c(cn3)CN[C@@H](C)C4)CC2)O1 (single isomer, unassigned) [Example 71]
